Reference: US20210353767A1, “COMPOSITIONS AND METHODS FOR DRUG DELIVERY” (NORTH CAROLINA STATE UNIVERSITY, priority 2018, published 2021)
Values joined by “and” are separate entries in the source; they are usually repeats but may differ in a detail not shown here. Equal values may be shown once. Read-outs that look alike come from different tables or passages of the source.

Legend:
[1] = tested on: KPC 4662 pancreatic tumor; details: average of 4 mice
Protocol: Allograft Pancreatic Tumor. KPC 4662 pancreatic tumor cells (5e5) were injected in a 1:1 ratio with PBS:Matrigel(Matrigel Matrix 354234, lot 7205011) into the subcutaneous dorsal flanks of CD57B16 mice.
IVIS imaging (Camera #11219, DW434) was performed right before 100 ul of 50 mg/ml DBCO-cy7 retro orbital injections and imaged 24 hours afterwards when most of the unbound DBCO-cy was cleared from systemic circulation. For the refill dose experiments 9-week-old albino c57b16's from Envigo were used. For all other tumor refills, 9-week-old regular c57s from Envigo were used.

[2] = CD1 mice, one month after intradermal injection of 50 μL
Protocol: H&E slides of mouse skin and tissues from 8 mice were analyzed to determine local or distal effects of an injected depot material. All tissues were evaluated by light microscopy and were graded as: “-”=no changes observed in this tissue for any mouse; “0”=a particular change not present; “1”=change is present at slight/minimal severity; “2”=mild severity, “3”=moderate severity; “4” marked severity; “5”=severe. A grade of 1 represents the minimal detectable change and a 5 represents a change judged to be essentially as severe as possible.

KPC 4662 tumors = details: pancreatic tumor after a dose of DBCO-cy7
Protocol: 8 mice were similarly injected with KPC 4662 tumors and allowed to grow over a week until injection of sNHS(N=4) or PBS(N=4). Injection and imaging was performed as described above on the IVIS before and 24 hours after DBCO-cy7 IV injection. Tumors were then explanted imaged to compare to a linear regression alginate gels ROI's that contained the same dose injected IV to obtain a percentage of cy7 captured at the tumor site.
The study employed three tumors injected with a “Click Target” and one control.

[3] = Brain refills: capture of i.v. DBCO-Cy7 at intracranial azide-sNHS depot; assay type: in vivo; details: azide-sNHS vs control mice, 24 hours after i.v. administration
Protocol: Representative images of azide-sNHS and control mice after 24 hours after i.v. administration of DBCO-Cy7. The brain was removed and imaged alone.
Quantitation of intracranial ROI radiant efficiency was measured 24 hours after i.v. DBCO-Cy7 administration. Samples show mean+/−SEM. *=p<0.05, **=p<0.01 by Student's T-test.
Brain Refills. For anesthesia, 1-5% isoflurane was administered before procedures as well as continuously through the stereotaxic setup, and 0.5% lidocaine HCL administered subcutaneous under the incision site prior to surgery. 10-week-old CD1 mice were mounted on a kopf stereotaxic head stage using ear bars and a 5 μl Hamilton syringe placed in needle fixture. For surgery, the area to be incised on the head was shaved and washed with 70% alcohol. An incision with a #10 blade was made from posterior to anterior (start of skull to between eyes) and skin pulled away from incision using sterile Q-tips to expose the skull. The syringe needle was adjusted so the tip was at Bregma, position of the stereotaxic device recorded, and then moved to the desired calculated position where a marking will be made with a surgical marker. The experimental coordinates were −2.5M/L, −1A/P, −3D/V. A small hand drill was then used to make a 1-2 mm size hole in the skull for the injection needle. […] Once complete, the mouse skin was joined by VetBond skin glue and monitored post-surgery. […]

[4] = Intradermal tetrazine-sNHS depot, IVIS imaging of TCO-cy5 capture; assay type: in vivo, mice; details: for Average Radiant Efficiency: average of 4 mice; for Total Radiant Efficiency Measured within Regions of Interest (ROI): before-injection value subtracted, individual mouse
Protocol: 50 μL of 0.05M methyl tetrazine-sNHS ester was dissolved in sterile PBS, and injected intradermally into the dorsal flanks of mice CD1 Charles river mice. The first four images in FIG. 8 are pictures of the four mice treated with the “Click-Target” (tetrazine-sNHS) and the four control mice injected with PBS. The last 4 images in FIG. 8 show the fluorescence observed 24 hours after injection of the “Click Prodrug” (TCO-cy5). The IVIS was adjusted for this cy5 fluorophore. […] This experiment was also performed at 1 week with similar results
The total increase in fluorescence after the TCO-cy5 injection (at 1 day) over the intradermal injection ROI's (total radiant efficiency measurement) subtracting the before tco-cy5 image injection value are included below.
The total increase in fluorescence after the TCO-cy5 injection (at 1 week) over the intradermal injection ROI's (total radiant efficiency measurement) subtracting the before tco-cy5 image injection value are included below.

Compound: [N-]=[N+]=NCCC(=O)ON1C(=O)CC(S(=O)(=O)O)C1=O (stereo not shown) [Azide sNHS, 3-Azidopropionic Acid Sulfo-NHS ester]
- Average Radiant Efficiency ([1]; 24 hours after first administration of DBCO-cy7): 9.21 × 10^9
- Average Radiant Efficiency ([1]; 24 hours after second administration of DBCO-cy7): 7.26 × 10^9
- Average Radiant Efficiency ([1]; 24 hours after third administration of DBCO-cy7): 4.12 × 10^9
- histologic changes (H&E) versus PBS group [2]: no difference between the two groups
- radiance relative to control (ROI measurements) (KPC 4662 tumors): four times greater

Compound: C[N+]1=C(C=CC2=CC(=CC=C3N(CCCCCC(=O)NCCCCCC(=O)N4Cc5ccccc5C#Cc5ccccc54)c4ccccc4C3(C)C)CCC2)C(C)(C)c2ccccc21.F[P-](F)(F)(F)(F)F [DBCO-Cy7, Cyanine7 DBCO]
- capture in the brain [3]: click-specific capture

Compound: methyl tetrazine-sNHS ester
- Average Radiant Efficiency ([4]; TCO-cy5 injection at 1 week): 1.25 × 10^9
- Average Radiant Efficiency ([4]; TCO-cy5 injection at 1 day): 2.72 × 10^9
- Total Radiant Efficiency Measured within Regions of Interest (ROI) ([4]; increase in fluorescence after TCO-cy5 injection at 1 week): 1.12 × 10^9 and 1.57 × 10^9 and 1.31 × 10^9 and 1.01 × 10^9
- Total Radiant Efficiency Measured within Regions of Interest (ROI) ([4]; increase in fluorescence after TCO-cy5 injection at 1 day): 3.64 × 10^9 and 2.40 × 10^9 and 1.92 × 10^9 and 2.90 × 10^9
